Results published in patent US20140357713A1, “ANTIMICROBIAL COMPOUNDS AND METHODS OF USE” (NexMed Holdings, Inc., priority 2012, published 2014).
Structures can show the parent of a compound that is named as a salt. Where two headings read alike, the source gives them in different places.

How the values were obtained:
[1] = system: Candida albicans (ATCC 90029); assay: Minimum inhibitory concentration (MIC) assay, Example 33; type: cell-based; details: Candida albicans
How it was run: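 Broth microdilution per CLSI guidelines in RPMI 1640; inoculum set to OD530 0.08–0.13, diluted 1:50 then 1:20 to 2× strength and mixed 1:2 with 2-fold serial compound dilutions. Incubated at 35° C; MIC read per CLSI.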

[2] = system: Pseudomonas aeruginosa (ATCC 27853); assay: Time kill study, Example 33 (0 to 5 min); type: cell-based; details: 1×MIC
How it was run: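 Viable counts (Log10 CFU/mL) were recorded at each time point. Equal volumes of strain suspension and compound solution were combined following CLSI guidelines, then aliquots were diluted, plated on agar and incubated 24 to 48 hrs before colony counting.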

Pseudomonas aeruginosa = assay: Extended time kill study, Example 34 (0 to 24 h); type: cell-based
How it was run: (§1)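 Strain suspensions prepared as for MIC testing were mixed 1:1 with compound solution at higher multiples of MIC. Samples taken over 0 to 24 h were diluted in test medium and plated on agar, and colonies were counted after 24–48 h incubation.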

Escherichia coli = assay: Extended time kill study, Example 34 (0 to 24 h); type: cell-based
How it was run: as §1

pH (Table 1) = type: physicochemical; details: hydrochloride

CCCCCCCCCCCCOC(=O)C(C)N(C)C (stereo not drawn) [Nex-05, Dodecyl 2-(dimethylamino)propanoate hydrochloride]
MIC ([1]; ATCC90029, Table 19 summary): > 12.5 mg/mL | MIC ([1]; ATCC90029, read-out: MIC Candida albicans, n = 1): > 12.5 mg/mL | MIC ([1]; ATCC90029, read-out: MIC Candida albicans, n = 2): > 12.5 mg/mL | Viable counts, Pseudomonas aeruginosa time kill study ([2]; 1 min, listed as Nex-88, hydrochloride): <3.70 Log10 CFU/mL | Viable counts, Pseudomonas aeruginosa time kill study ([2]; 5 min): <3.52 Log10 CFU/mL | Viable counts, Pseudomonas aeruginosa time kill study (Pseudomonas aeruginosa; 1 × MIC, 1 h): <1 Log10 CFU/mL | Viable counts, Pseudomonas aeruginosa time kill study (Pseudomonas aeruginosa; 1 × MIC, 2 h): <1 Log10 CFU/mL | Viable counts, Pseudomonas aeruginosa time kill study (Pseudomonas aeruginosa; 1 × MIC, 4 h): <1 Log10 CFU/mL | Viable counts, Pseudomonas aeruginosa time kill study (Pseudomonas aeruginosa; 1 × MIC, 6 h): <1 Log10 CFU/mL | Viable counts, Pseudomonas aeruginosa time kill study (Pseudomonas aeruginosa; 1 × MIC, 24 h): <1 Log10 CFU/mL | Viable counts, Pseudomonas aeruginosa time kill study (Pseudomonas aeruginosa; 1×MIC, time 0): 5.30 Log10 CFU/mL | Viable counts, Pseudomonas aeruginosa time kill study (Pseudomonas aeruginosa; 2 × MIC, 1 h): <1 Log10 CFU/mL | Viable counts, Pseudomonas aeruginosa time kill study (Pseudomonas aeruginosa; 2 × MIC, 2 h): <1 Log10 CFU/mL | Viable counts, Pseudomonas aeruginosa time kill study (Pseudomonas aeruginosa; 2 × MIC, 4 h): <1 Log10 CFU/mL | Viable counts, Pseudomonas aeruginosa time kill study (Pseudomonas aeruginosa; 2 × MIC, 6 h): <1 Log10 CFU/mL | Viable counts, Pseudomonas aeruginosa time kill study (Pseudomonas aeruginosa; 2 × MIC, 24 h): <1 Log10 CFU/mL | Viable counts, Pseudomonas aeruginosa time kill study (Pseudomonas aeruginosa; 2 × MIC, time 0): 5.22 Log10 CFU/mL | Viable counts, Pseudomonas aeruginosa time kill study (Pseudomonas aeruginosa; 4 × MIC, 1 h): <1 Log10 CFU/mL | Viable counts, Pseudomonas aeruginosa time kill study (Pseudomonas aeruginosa; 4 × MIC, 2 h): <1 Log10 CFU/mL | Viable counts, Pseudomonas aeruginosa time kill study (Pseudomonas aeruginosa; 4 × MIC, 4 h): <1 Log10 CFU/mL | Viable counts, Pseudomonas aeruginosa time kill study (Pseudomonas aeruginosa; 4 × MIC, 6 h): <1 Log10 CFU/mL | Viable counts, Pseudomonas aeruginosa time kill study (Pseudomonas aeruginosa; 4 × MIC, 24 h): <1 Log10 CFU/mL | Viable counts, Pseudomonas aeruginosa time kill study (Pseudomonas aeruginosa; 4 × MIC, time 0): 5.26 Log10 CFU/mL | Viable counts, Escherichia coli time kill study (Escherichia coli; 1 × MIC, 1 h): <1 Log10 CFU/mL | Viable counts, Escherichia coli time kill study (Escherichia coli; 1 × MIC, 2 h): <1 Log10 CFU/mL | Viable counts, Escherichia coli time kill study (Escherichia coli; 1 × MIC, 4 h): <1 Log10 CFU/mL | Viable counts, Escherichia coli time kill study (Escherichia coli; 1 × MIC, 6 h): <1 Log10 CFU/mL | Viable counts, Escherichia coli time kill study (Escherichia coli; 1 × MIC, 24 h): <1 Log10 CFU/mL | Viable counts, Escherichia coli time kill study (Escherichia coli; 1×MIC, time 0): 5.10 Log10 CFU/mL | Viable counts, Escherichia coli time kill study (Escherichia coli; 2 × MIC, 1 h): <1 Log10 CFU/mL | Viable counts, Escherichia coli time kill study (Escherichia coli; 2 × MIC, 2 h): <1 Log10 CFU/mL | Viable counts, Escherichia coli time kill study (Escherichia coli; 2 × MIC, 4 h): <1 Log10 CFU/mL | Viable counts, Escherichia coli time kill study (Escherichia coli; 2 × MIC, 6 h): <1 Log10 CFU/mL | Viable counts, Escherichia coli time kill study (Escherichia coli; 2 × MIC, 24 h): <1 Log10 CFU/mL | Viable counts, Escherichia coli time kill study (Escherichia coli; 2 × MIC, time 0): 5.16 Log10 CFU/mL | Viable counts, Escherichia coli time kill study (Escherichia coli; 4 × MIC, 1 h): <1 Log10 CFU/mL | Viable counts, Escherichia coli time kill study (Escherichia coli; 4 × MIC, 2 h): <1 Log10 CFU/mL | Viable counts, Escherichia coli time kill study (Escherichia coli; 4 × MIC, 4 h): <1 Log10 CFU/mL | Viable counts, Escherichia coli time kill study (Escherichia coli; 4 × MIC, 6 h): <1 Log10 CFU/mL | Viable counts, Escherichia coli time kill study (Escherichia coli; 4 × MIC, 24 h): <1 Log10 CFU/mL | Viable counts, Escherichia coli time kill study (Escherichia coli; 4 × MIC, time 0): 5.21 Log10 CFU/mL | pH (pH (Table 1)): 2.87
